From paper PMC11915372, “Identification of a Series Containing a Pentafluorophenyl Moiety That Targets Pks13 to Inhibit Growth of Mycobacterium tuberculosis” (ACS Infectious Diseases, 2025) come the findings set out here.

Like-named read-outs stand apart in the source and are kept apart here.

One data set concerns M. tuberculosis (H37Rv). Nature of the data set: microbe, parasite or virus in culture. Type of data set: cell-based, Mycobacterium tuberculosis.
A further data set in a line: physchem. Type of data set: physicochemical.
Data set [1] is classed as in vitro ADME, mouse. The conditions noted are these: for Mouse micro Cl: intrinsic clearance (Cli), CD1 mouse liver microsomes, Tables 1-4; for Microsomal Cli: supplement data table.
The format of data set [2] is in vitro ADME, mouse. Conditions: for Mouse Heps Cl: intrinsic clearance (Cli), mouse hepatocytes, Tables 1-4; for Hepatocyte Cli: supplement data table.
Data set [3] concerns iniBAC promoter (PiniB-LUX strain). Type of data set: cell-based, Mycobacterium tuberculosis.
Another data set has as its system Pks13 hypomorph strain. Type of data set: cell-based, Mycobacterium tuberculosis.
Data set [4] has as its system MmpL3, DprE1, InhA, FadD32, Kas A hypomorph strains. Type of data set: cell-based, Mycobacterium tuberculosis.
The format of data set [5] is in vitro ADME, human. The method, then:
Non-Chemistry supplementary methods
Test compound (10 µM) was incubated with 0.5 mg/mL Human Liver Microsomes (Mixed Gender, Life Technologies) in 50 mM potassium phosphate buffer, pH7.4 in the presence of either NADPH (8mg/mL), glutathione or NADPH plus glutathione. Reactions are started by addition of 5 µL of 1 mM test compound (final concentration 10 µM, 1% solvent). Immediately, an aliquot (100 µL) of the incubation mixture was removed and mixed with acetonitrile (200 µL) to stop the reaction. A further 100 uL aliquot is removed at 90 minutes. After addition of 100 µL of water, the samples were centrifuged to sediment precipitated protein and the plates then sealed prior to analysis using a Xevo QTof Quadrupole Time-of-Flight Mass Spectrometer (Waters corporation, USA). Detection of metabolites is performed by analysis with MetabolynxXS and by manual data searching. Elemental composition of the parent ion and MS/MS analysis is used to determine the nature of the GSH adduct.
Incubations with Clozapine were performed to provide a positive control.
Met ID in human liver microsomes […]
Analysis was performed on a Waters Acquity H-Class UHPLC system equipped with a photodiode array detector and Waters Xevo Q-ToF high resolution mass spectrometer. […] After the UV detector the mobile phase flow was analysed using the QToF mass spectrometer. […]

The test system of a further data set is HepG2 cells. Nature of the data set: HepG2 cytotoxicity.
The conditions of data set [6]: pH 7.4.
[7] abbreviates: kinetic solubility in water, read-out: Kin. Sol.

Source text for HepG2 cells: Assays to establish HepG2 cytotoxicity, in vitro microsomal/hepatocyte metabolic stability, aqueous kinetic solubility, and in vivo pharmacokinetic profiles were all performed as previously described.[15],[35]−[37]

Regarding `CN(C)c1ncnc2sc(-c3c(F)c(F)c(F)c(F)c3F)nc12.Cl` [Compound 1, CN(C)c1ncnc2sc(nc12)-c1c(c(c(c(c1F)F)F)F)F], the MIC in the data set with M. tuberculosis (H37Rv) (Mycobacterium tuberculosis, H37RV, read-out: H37Rv MIC A) was found to be 0.12 µM; in the data set with M. tuberculosis (H37Rv) (Mycobacterium tuberculosis, H37RV, read-out: H37Rv MIC B), 0.61 µM; in the data set on M. tuberculosis (H37Rv) (Mycobacterium tuberculosis, H37RV, read-out: Wk2_7H9/DPPC/ casitone/ Tyloxapol MIC) it was 0.124 µM; in the data set on M. tuberculosis (H37Rv) (Mycobacterium tuberculosis, H37RV, read-out: Wk2_ 7H9/DPPC/ cholesterol/BSA/ Tyloxapol MIC) it was 0.6 µM; with M. tuberculosis (H37Rv) (Mycobacterium tuberculosis, H37RV, read-out: Wk2_7H9/glucose/ BSA/Tyloxapol MIC) it was 0.5 µM; with M. tuberculosis (H37Rv) (Mycobacterium tuberculosis, H37RV, read-out: Wk2_7H9/glucose/ casitone/ Tyloxapol MIC), 0.1 µM. The solubility kinetic in “physchem” (setting [7]) was 1.9 µM; in “physchem” (pH 7.4, aqueous buffer, kinetic from dmso stock, pH7.4, read-out: Kinetic Solubility pH7.4), 1.9 µM. Besides, the “Mouse micro Cl” value in data set [1] is given as over 50 mLmin/g. Moreover, the “Microsomal Cli” value in data set [1] is given as over 50 mL/min/g. Moreover, the “Mouse Heps Cl” value in [2] is over 50 mLmin/g. Further, in [2], the “Hepatocyte Cli” value was over 50 mL/min/g. Further, the PiniB-LUX luminescent signal entry in data set [3] is listed as “strong luminescent signal”. Further, the “shift in IC50 between the ± atc conditions” value in the data set on Pks13 hypomorph strain is about 10 fold. For the same molecule, the “change in potency on partial depletion of InhA, FadD32 or Kas A” value in data set [4] is listed as “did not increase in potency”. Moreover, in data set [4], the “inhibition of MmpL3 or DprE1 suggested by hypomorph strains” value was “not inhibiting MmpL3 or DprE1”. Also, the “formation of the GSH adduct” value in data set [5] is reported as “clear evidence of a significant peak corresponding to the formation of the GSH adduct”. The IC50 with HepG2 cells (Homo sapiens, HepG2, read-out: HepG2 inhibitory concentration (IC50)) is over 100 µM.
For “COC(=O)c1nn(c(c1NC(=O)c1c(c(c(c(c1F)F)F)F)F)C)C [Compound 20]”, the MIC in the data set on M. tuberculosis (H37Rv) (read-out: H37Rv MIC A), with M. tuberculosis (H37Rv) (read-out: H37Rv MIC B), with M. tuberculosis (H37Rv) (read-out: Wk2_7H9/DPPC/ casitone/ Tyloxapol MIC), in the data set with M. tuberculosis (H37Rv) (read-out: Wk2_ 7H9/DPPC/ cholesterol/BSA/ Tyloxapol MIC), in the data set with M. tuberculosis (H37Rv) (read-out: Wk2_7H9/glucose/ BSA/Tyloxapol MIC) and with M. tuberculosis (H37Rv) (read-out: Wk2_7H9/glucose/ casitone/ Tyloxapol MIC) was over 50 µM each time. For the same molecule, the solubility kinetic in “physchem” (setting [7]) is recorded as 229 µM; in the data set “physchem” (pH 7.4, read-out: Kinetic Solubility pH7.4), 229 µM. In addition, in data set [1], the “Mouse micro Cl” value was 1.4 mLmin/g. Also, the “Microsomal Cli” value in data set [1] is 1.4 mL/min/g. In addition, in data set [2], the “Mouse Heps Cl” value came out at 15.2 mLmin/g. Moreover, in data set [2], the “Hepatocyte Cli” value is reported as 15 mL/min/g. Further, in data set [6], the “CHI LogD” value is listed as 2.0. The IC50 in the data set with HepG2 cells (read-out: HepG2 inhibitory concentration (IC50), growth of HepG2 cells) is over 100 µM.
